For data set [1], the target named is T1, GABA-A receptor; alpha-3/beta-3/gamma-2 (Homo sapiens) (UniProt P18507+P28472+P34903). As to the kind of experiment: Efficacy against recombinant human GABA-Aalpha3 receptor plus beta-3-gamma-2 expressed in L(tk-) cells by whole cell patch clamp method. The class given is functional, cell-based. On the technique in general: Patch clamp records ionic current or voltage across a cell membrane.

Data set [2] deals with T2, GABA-A receptor; alpha-1/beta-3/gamma-2 (Homo sapiens) (UniProt P14867+P18507+P28472). As to the kind of experiment: Efficacy against recombinant human GABA-Aalpha1 receptor plus beta-3-gamma-2 as measured by modulation of chloride ion flux. The class given is functional.
Data set [3] has as its target T1, GABA-A receptor; alpha-3/beta-3/gamma-2 (Homo sapiens). In words: Efficacy against recombinant human GABA-Aalpha3 receptor plus beta-3-gamma-2 as measured by modulation of chloride ion flux. Format: functional.
For data set [4], the target named is T2, GABA-A receptor; alpha-1/beta-3/gamma-2 (Homo sapiens). In words: Efficacy against recombinant human GABA-Aalpha1 receptor plus beta-3-gamma-2 expressed in L(tk-) cells by whole cell patch clamp method. The class given is functional, cell-based.
Data set [5] can be described thus: Metabolism in dog liver microsomes at 1 uM. (In general: Liver microsomes are a subcellular fraction often used to study metabolism.)
For data set [6], the target named is T3, GABA-A receptor; alpha-1/beta-3/gamma-2 (Homo sapiens, UniProt P14867+P18507+P28472).
T3 sequence (P14867 whole entry): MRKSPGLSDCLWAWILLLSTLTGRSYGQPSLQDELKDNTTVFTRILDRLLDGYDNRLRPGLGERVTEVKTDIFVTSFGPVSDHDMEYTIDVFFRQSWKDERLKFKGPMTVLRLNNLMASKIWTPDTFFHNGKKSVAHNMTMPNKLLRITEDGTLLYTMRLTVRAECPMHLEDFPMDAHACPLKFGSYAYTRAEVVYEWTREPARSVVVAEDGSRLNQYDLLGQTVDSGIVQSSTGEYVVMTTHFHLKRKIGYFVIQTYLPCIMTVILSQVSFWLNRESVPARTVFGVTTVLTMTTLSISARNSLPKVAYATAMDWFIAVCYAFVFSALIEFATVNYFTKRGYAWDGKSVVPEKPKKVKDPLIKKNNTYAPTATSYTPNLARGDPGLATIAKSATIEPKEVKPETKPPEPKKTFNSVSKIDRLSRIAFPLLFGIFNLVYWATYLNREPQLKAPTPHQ
T3 sequence (P18507 whole entry): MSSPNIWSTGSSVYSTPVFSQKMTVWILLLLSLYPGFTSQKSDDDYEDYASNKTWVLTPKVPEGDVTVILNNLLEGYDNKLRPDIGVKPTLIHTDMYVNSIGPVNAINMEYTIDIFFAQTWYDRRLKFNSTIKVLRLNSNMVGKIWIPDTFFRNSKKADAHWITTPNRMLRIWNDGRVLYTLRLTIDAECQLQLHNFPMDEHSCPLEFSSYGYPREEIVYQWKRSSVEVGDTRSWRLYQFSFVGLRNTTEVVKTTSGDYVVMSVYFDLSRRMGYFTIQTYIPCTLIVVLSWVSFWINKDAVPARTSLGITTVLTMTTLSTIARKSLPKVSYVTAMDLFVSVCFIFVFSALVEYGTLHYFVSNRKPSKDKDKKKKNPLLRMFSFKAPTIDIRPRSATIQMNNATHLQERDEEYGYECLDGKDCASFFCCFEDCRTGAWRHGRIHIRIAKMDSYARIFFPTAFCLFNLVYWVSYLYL
T3 sequence (P28472 whole entry): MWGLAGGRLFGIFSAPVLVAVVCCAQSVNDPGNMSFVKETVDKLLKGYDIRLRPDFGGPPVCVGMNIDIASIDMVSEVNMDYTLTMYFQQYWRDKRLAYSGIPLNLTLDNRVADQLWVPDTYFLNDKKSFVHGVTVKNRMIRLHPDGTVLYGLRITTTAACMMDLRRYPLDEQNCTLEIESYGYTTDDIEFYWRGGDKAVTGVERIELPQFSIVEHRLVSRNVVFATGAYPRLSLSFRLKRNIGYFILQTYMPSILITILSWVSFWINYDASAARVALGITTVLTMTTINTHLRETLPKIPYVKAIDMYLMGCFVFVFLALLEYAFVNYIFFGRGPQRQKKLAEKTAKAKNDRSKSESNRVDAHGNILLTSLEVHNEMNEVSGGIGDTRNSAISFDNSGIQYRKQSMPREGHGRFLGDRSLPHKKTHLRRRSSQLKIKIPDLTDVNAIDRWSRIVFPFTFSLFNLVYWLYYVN
As to the kind of experiment: Displacement of [3H]Ro 15-1788 from recombinant human GABA-Aalpha1 receptor plus beta-3-gamma-2 expressed in L(tk-) cells. Format: cell-based. On the technique in general: Displacement assays read how much labelled ligand stays bound in the presence of the test substance.

For data set [7], the target named is T4, GABA-A receptor; alpha-3/beta-3/gamma-2 (Homo sapiens, UniProt P18507+P28472+P34903).
T4 sequence (P18507 whole entry): T3 sequence (P18507 whole entry)
T4 sequence (P28472 whole entry): T3 sequence (P28472 whole entry)
T4 sequence (P34903 whole entry): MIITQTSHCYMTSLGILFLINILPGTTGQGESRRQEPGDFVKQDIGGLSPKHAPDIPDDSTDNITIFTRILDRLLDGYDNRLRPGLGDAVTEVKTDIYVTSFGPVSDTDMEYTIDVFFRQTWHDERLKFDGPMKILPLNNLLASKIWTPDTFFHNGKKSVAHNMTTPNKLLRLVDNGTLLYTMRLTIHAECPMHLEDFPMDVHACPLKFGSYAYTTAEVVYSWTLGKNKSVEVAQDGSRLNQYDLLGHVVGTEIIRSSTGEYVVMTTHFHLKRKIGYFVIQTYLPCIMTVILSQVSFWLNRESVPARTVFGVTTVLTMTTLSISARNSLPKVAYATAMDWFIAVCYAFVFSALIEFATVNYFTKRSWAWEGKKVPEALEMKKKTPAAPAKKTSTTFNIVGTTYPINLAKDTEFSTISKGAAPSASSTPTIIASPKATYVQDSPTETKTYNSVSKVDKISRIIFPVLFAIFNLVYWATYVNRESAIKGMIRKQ
As to the kind of experiment: Displacement of [3H]Ro 15-1788 from recombinant human GABA-Aalpha3 receptor plus beta-3-gamma-2 expressed in L(tk-) cells. The class given is cell-based.

Data set [8] addresses GABA-A receptor; alpha-5/beta-3/gamma-2 (Homo sapiens) (UniProt P18507+P28472+P31644). In words: Displacement of [3H]Ro 15-1788 from recombinant human GABA-Aalpha5 receptor plus beta3gamma2 expressed in L(tk-) cells. Format: cell-based.
Data set [9] deals with GABA-A receptor; anion channel (Rattus norvegicus) (UniProt O09028+P15431+P18506+P18508+P19969+P20236+P23574+P23576+P28471+P28473+P30191+P62813+P63079+P63138+Q91ZM7+Q9ES14). As to the kind of experiment: Receptor occupancy in vivo by displacement of [3H]Ro 15-1788 binding from GABA-A receptor in rat at 1 mg/kg, po. Format: functional, organism-based. Also on record: dose 1 mg/kg.

A further data set concerns Plasma. In words: Receptor occupancy in plasma of rat at 1 mg/kg, po. Format: functional.
For a further data set, the species on record is Homo sapiens. In words: Stability in human liver microsomes. Format: ADME, Microsome.
Data set [10] is described as follows: Rat brain to plasma ratio at 1 mg/kg, po. The class given is ADME, organism-based. On the set-up: dose 1 mg/kg, route oral. Conditions: brain and plasma.
A further data set is filed under the species Canis familiaris. As to the kind of experiment: Stability in dog liver microsomes. The class given is ADME, Canis lupus familiaris, Microsome.
The test system of the next data set is Mus musculus. As to the kind of experiment: Proconvulsant activity in Swiss Webster mice at 10 mg/kg, ip by pentylenetetrazole assay. Format: ADME, organism-based. Also on record: dose 10 mg/kg, route intraperitoneal. Conditions: in vivo.

Active and inactive are the calls of the source. The calls are words filed in the database; no cut-off is given here.

As to `N#Cc1ccccc1-c1cccc(-c2cnc3nc(C(F)(F)F)ccn23)c1`, the Efficacy in [1] is 59%; in data set [2], 10%; in data set [3], 53%; in data set [4], 19%. In addition, the metabolized at 1 µM in [5] came out at 100%.

In general, Ki refers to the equilibrium dissociation constant of an inhibitor or competing ligand from its target. For the molecule `Fc1cccc(-c2cc(-c3cnc4nc(C(F)(F)F)ccn34)ccn2)c1`, the Ki in data set [6] and in data set [7] was > 33 nM throughout.

For the molecule `FC(F)(F)c1ccn2c(-c3cc(Cl)ncn3)cnc2n1`, the Ki in data set [6] and in [7] was > 33 nM each time.

Regarding `N#Cc1ccccc1-c1cccc(-c2cnc3nc(C(F)(F)F)ccn23)n1`, the results for the Ki in [6] and in data set [7] were 0.36 nM and 0.46 nM, respectively. Moreover, the Efficacy is -22% in data set [1], -8% in data set [2] and 10% in data set [3]. For the same molecule, the outcome in data set [8] was Active. The metabolized at 1 µM in data set [5] was 15%.

Take `COc1ccccc1-c1cc(-c2cnc3nc(C(F)(F)F)ccn23)ccn1`: the results for the Ki in data set [6] and in data set [7] were 5.8 nM and 6.1 nM, respectively. Moreover, the Efficacy in data set [2] stood at 35%; in data set [3] it was 54%.

In the case of `FC(F)(F)c1ccn2c(-c3cc(Cl)ccn3)cnc2n1`, the Ki in data set [6] and in [7] was > 33 nM each time.

For `N#Cc1ccccc1-c1ccnc(-c2cnc3nc(C(F)(F)F)ccn23)c1`, the Ki in data set [6] and in data set [7] was > 33 nM throughout.

For `N#Cc1ccccc1-c1ccnc(-c2cnc3nc(C(F)(F)F)ccn23)n1`, the Ki in [6] and in [7] was > 33 nM each time.

Take `FC(F)(F)c1cccc(-c2cnc3nc(C(F)(F)F)ccn23)n1`: the Ki in data set [6] was found to be 0.31 nM; in data set [7], 0.88 nM. Besides, the Efficacy was -24% in [2] and -40% in data set [3].

For the molecule `COc1cccc(-c2cnc3nc(C(F)(F)F)ccn23)n1`, the Ki stood at 1.2 nM in data set [6] and 1.7 nM in data set [7]. The Efficacy is -51.6% in data set [1], -22% in [2], -9% in [3] and -41.4% in data set [4].

Take `Fc1ccccc1-c1cc(-c2cnc3nc(C(F)(F)F)ccn23)ccn1`: the Ki is 8.3 nM in data set [6] and 14 nM in [7]. In addition, the values for the Efficacy in data set [2] and in [3] were 6% and 23%, respectively.

With `COc1cc(-c2cnc3nc(C(F)(F)F)ccn23)ccn1`, the inhibition constant (Ki) is 29 nM in data set [6] and > 33 nM in data set [7].

With `N#Cc1ccccc1-c1cncc(-c2cnc3nc(C(F)(F)F)ccn23)c1`, the figures for the Ki in [6] and in data set [7] were 18 nM and > 33 nM, respectively. Also, the figures for the Efficacy in data set [2] and in data set [3] were -55% and -39%, respectively.

In the case of `N#Cc1ccccc1-c1nccc(-c2cnc3nc(C(F)(F)F)ccn23)n1`, the figures for the Ki in data set [6] and in [7] were 1 nM and 1.4 nM, respectively. In data set [8], the result was Active. Besides, the Efficacy in data set [2] is -29%; in [3], -15%. This molecule showed a metabolized at 1 µM in data set [5] of 56%.

Broadly, the Kp is the ratio of the level in a tissue or fluid to that in plasma or blood. For the molecule `N#Cc1cc(F)ccc1-c1cc(-c2cnc3nc(C(F)(F)F)ccn23)ccn1`, the Activity in data set [9] was 50%; in the data set on Plasma, 0.15 µM. For the same molecule, the figures for the Ki in data set [6] and in [7] were 0.99 nM and 2.2 nM, respectively. The Stability in the data set listed under Homo sapiens and in the data set filed under Canis familiaris was < 5% throughout. The Efficacy in [1] is 22%; in [2] it was 9%; in [3], 21%; in data set [4], 0%. In addition, the Kp in data set [10] came to 0.73.

As for `FC(F)(F)c1ccn2c(-c3cccc(Br)n3)cnc2n1`, the Ki in data set [6] stood at 0.31 nM; in data set [7] it was 0.68 nM. Also, the Efficacy in [2] turned out to be 11%; in data set [3], 2%.

`FC(F)(F)c1ccn2c(-c3ccnc(Cl)n3)cnc2n1`: the Ki stood at 0.93 nM in data set [6] and 2 nM in [7]. Also, the Efficacy in data set [1] was -24.9%; in data set [2], -22%; in [3], -19%. Further, the Activity entry in the data set on Mus musculus is given as “Inverse agonist”.

Regarding `CCO/N=C(\C)c1ccc2c(c1)ncn2-c1cccc(-c2cccnc2)c1`, the Ki in data set [6] worked out at 1.9 nM; in data set [7] it was 13 nM.

On to `N#Cc1ccccc1-c1cc(-c2cnc3nc(C(F)(F)F)ccn23)ccn1`, for which the Ki was 2.5 nM in data set [6] and 2.9 nM in [7]. For the same molecule, the Efficacy in [1] stood at 45%; in data set [2], 4%; in data set [3] it was 43%; in data set [4] it was 15%. In addition, the result in [8] was Active. Moreover, in data set [5], the metabolized at 1 µM was 4%.

Consider `FC(F)(F)c1ccn2c(-c3ccccn3)cnc2n1`, for which the inhibition constant Ki in [6] stood at 9.1 nM; in data set [7] it was 11 nM. The results for the Efficacy in data set [2] and in data set [3] were -40% and -7%, respectively.
